According to patent US9745287B2, “Pyrimidines and use thereof” (Purdue Pharma L.P., priority 2013, dated 2017):
Read-outs that look alike come from different tables or passages of the source.

What was measured:
human Nav1.7 = human Nav1.7 (Homo sapiens (Human), UniProt Q15858); assay: FLIPR or FLIPR TETRA sodium dye assay with KCl and test article pre-incubation; type: cell-based
hNav1.7 = hNav1.7 (Homo sapiens (Human), UniProt Q15858); assay: Electrophysiology (EP) assay, whole-cell patch clamp in hNav1.7 expressing HEK-293 cells; type: cell-based; conditions: affinity for inactivated state of hNav1.7, HEK-293; read-out: Nav1.7 Activity (μM) EP assay Ki
Procedure: Cells Manual Electrophysiology: The hNav1.7 expressing HEK-293 cells are plated on 35 mm culture dishes pre-coated with poly-D-lysine in standard DMEM culture media (Mediatech, Inc., Herndon, Va.) and incubated in a 5% CO2 incubator at 37° C. Cultured cells are used approximately 12-48 hours after plating.
Cells Automated Electrophysiology: The hNav1.7 expressing HEK-293 cells are plated on tissue culture flasks in standard DMEM culture media (Mediatech, Inc.) and incubated in a 5% CO2 incubator at 37° C. Cultured cells are used approximately 12-48 hours after plating.
Manual Electrophysiology: On the day of experimentation, the 35 mm dish is placed on the stage of an inverted microscope equipped with a perfusion system that continuously perfuses the culture dish with fresh recording media. A gravity driven superfusion system is used to apply test solutions directly to the cell under evaluation. This “shooter” system consists of an array of glass pipettes connected to a motorized horizontal translator. The outlet of the shooter is positioned approximately 100 μm from the cell of interest.
Whole cell currents are recorded using the whole-cell patch clamp configuration using an Axopatch 200B amplifier (Axon Instruments, Foster City, Calif.), 1322A A/D converter (Axon Instruments) and pClamp software (v. 8; Axon Instruments) and stored on a personal computer. Gigaseals are formed and the whole-cell configuration is established in voltage clamp mode, and membrane currents generated by hNav1.7 channels are recorded. Borosilicate glass pipettes with resistance values between 1.5 and 2.0 MΩ when filled with pipette solution are used and series resistance (<5 MΩ) is compensated by 75-80%. Signals are sampled at 50 kHz and low pass filtered at 3 kHz.
Automated Electrophysiology: On the day of experimentation, cells are prepared by removing media and digesting with appropriate enzymes to suspend cells in external solution.
Whole cell currents are recorded using the whole-cell patch clamp configuration using an Patchliner (Nanion Technologies, Munich Germany), EPC 10 quadro amplifiers (HEKA, Bellmore, N.Y.) and PatchControl HT 10905 (Nanion Technologies) and PatchMaster v2x73 software (HEKA) and stored on a personal computer. Gigaseals are formed and the whole-cell configuration is established in voltage clamp mode, and membrane currents generated by hNav1.7 are recorded. NPC-16 chips have resistance values between 1.0 and 2.0 MΩ when filled with pipette solution and series resistance (<5 MΩ). Signals are sampled at 25 kHz and low pass filtered at 3 kHz.
Voltage protocols Manual Electrophysiology: After establishing the whole-cell configuration in voltage clamp mode, voltage protocols are run to establish the 1) test potential (Vmax), 2) holding potential (Vh), and 3) the conditioning potential for each cell.
After establishing the whole-cell configuration in voltage clamp mode, a standard I-V protocol is run to determine the potential at which the maximal current (Imax) is elicited. This potential is the test potential (Vt). To determine a conditioning potential at which 100% of channels are in the inactivated state, a standard steady-state inactivation (SSIN) protocol is run using a series of fifteen 100 ms-long depolarizing prepulses, incrementing in 10 mV steps, immediately followed by a 5 ms testing pulse to Vmax. This protocol also permits determination of the holding potential at which all channels are in the resting state.
For compounds causing significant retardation of recovery from inactivation, an estimate of the affinity for the inactivated state of the channel (Ki) is generated using the following protocol. From the negative, no residual inactivation, holding potential, the cell is depolarized to the conditioning voltage for 2-5 seconds, returned to the negative holding potential for 10-20 ms to relieve fast inactivation and then depolarized to the test potential for ˜15 ms. […]

[1] = recombinant human Nav1.7 in HEK293, veratridine + scorpion venom

Chain of hNav1.7 (Q15858 other isoform, or with tags, fused parts or gaps): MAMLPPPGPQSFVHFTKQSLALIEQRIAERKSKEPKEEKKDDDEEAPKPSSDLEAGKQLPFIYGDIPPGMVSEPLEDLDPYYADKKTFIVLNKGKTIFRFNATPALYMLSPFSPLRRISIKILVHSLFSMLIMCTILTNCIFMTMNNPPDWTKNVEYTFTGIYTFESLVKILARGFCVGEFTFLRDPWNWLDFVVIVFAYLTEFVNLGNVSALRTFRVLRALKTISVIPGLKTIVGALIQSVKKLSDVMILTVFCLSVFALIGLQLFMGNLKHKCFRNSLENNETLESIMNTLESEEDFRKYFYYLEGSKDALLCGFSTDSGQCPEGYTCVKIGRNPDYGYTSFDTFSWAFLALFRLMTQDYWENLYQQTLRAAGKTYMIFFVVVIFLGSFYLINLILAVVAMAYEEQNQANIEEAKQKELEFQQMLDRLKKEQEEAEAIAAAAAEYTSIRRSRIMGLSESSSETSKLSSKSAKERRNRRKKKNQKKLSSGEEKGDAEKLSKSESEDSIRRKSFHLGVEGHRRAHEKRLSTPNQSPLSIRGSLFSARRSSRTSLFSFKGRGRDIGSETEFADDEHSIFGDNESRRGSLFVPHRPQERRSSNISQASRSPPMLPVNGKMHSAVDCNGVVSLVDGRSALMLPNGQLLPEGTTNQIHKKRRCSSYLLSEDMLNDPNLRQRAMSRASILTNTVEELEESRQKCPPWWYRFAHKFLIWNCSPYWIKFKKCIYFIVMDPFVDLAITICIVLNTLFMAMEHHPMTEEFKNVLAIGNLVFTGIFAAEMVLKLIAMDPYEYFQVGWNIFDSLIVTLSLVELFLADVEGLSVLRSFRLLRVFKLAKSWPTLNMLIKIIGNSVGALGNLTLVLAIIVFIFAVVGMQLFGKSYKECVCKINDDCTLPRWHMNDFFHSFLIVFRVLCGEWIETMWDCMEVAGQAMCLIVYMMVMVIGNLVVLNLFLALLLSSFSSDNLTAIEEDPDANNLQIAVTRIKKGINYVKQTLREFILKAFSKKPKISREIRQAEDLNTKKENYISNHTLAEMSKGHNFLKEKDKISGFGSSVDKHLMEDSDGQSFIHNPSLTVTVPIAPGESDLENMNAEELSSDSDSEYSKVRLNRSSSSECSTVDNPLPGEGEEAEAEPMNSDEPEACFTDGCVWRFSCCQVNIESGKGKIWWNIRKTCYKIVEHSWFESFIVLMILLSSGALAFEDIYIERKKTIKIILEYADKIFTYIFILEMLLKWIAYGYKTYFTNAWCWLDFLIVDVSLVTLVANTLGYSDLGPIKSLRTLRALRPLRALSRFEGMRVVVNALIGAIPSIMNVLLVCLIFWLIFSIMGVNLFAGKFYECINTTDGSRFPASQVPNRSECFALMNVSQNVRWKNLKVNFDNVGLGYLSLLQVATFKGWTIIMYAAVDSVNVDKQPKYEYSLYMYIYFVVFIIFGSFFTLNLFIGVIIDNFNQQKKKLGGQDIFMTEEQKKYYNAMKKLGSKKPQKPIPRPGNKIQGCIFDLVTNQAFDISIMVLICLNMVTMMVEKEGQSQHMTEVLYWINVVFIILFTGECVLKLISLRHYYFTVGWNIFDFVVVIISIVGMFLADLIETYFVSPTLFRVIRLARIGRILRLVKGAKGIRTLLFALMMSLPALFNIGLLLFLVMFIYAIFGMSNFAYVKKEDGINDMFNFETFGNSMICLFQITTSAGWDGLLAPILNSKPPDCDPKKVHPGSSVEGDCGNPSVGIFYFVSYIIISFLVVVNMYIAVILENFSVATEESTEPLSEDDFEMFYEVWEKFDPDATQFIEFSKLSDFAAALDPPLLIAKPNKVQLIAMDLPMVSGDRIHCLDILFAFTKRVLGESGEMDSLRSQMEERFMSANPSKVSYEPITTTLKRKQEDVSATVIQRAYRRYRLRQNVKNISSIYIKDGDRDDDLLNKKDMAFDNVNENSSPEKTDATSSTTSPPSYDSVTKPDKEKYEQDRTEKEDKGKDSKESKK
Chain of human Nav1.7 (Q15858 other isoform, or with tags, fused parts or gaps): as above

Structure (SMILES) | IC50 (human Nav1.7) [µM] | Ki (hNav1.7) [µM] | IC50 (human Nav1.7; [1]) [µM]
O=C1CN(Cc2cc([C@H](O)CO)nc(-c3ccc(Oc4ccc(OC(F)(F)F)cc4)cc3)n2)CCN1 [Compound 41, (S)-4-((6-(1,2-dihydroxyethyl)-2-(4-(4-(trifluoromethoxy)-phenoxy)phenyl)pyrimidin-4-yl)methyl)piperazin-2-one] | 1.19 ± 0.11 | 0.875 ± 0.167 | –
NC(=O)c1cc(CN[C@H]2CCNC2=O)nc(-c2ccc(Oc3ccc(C(F)(F)F)cc3)cc2)n1 [Compound 20, (S)-6-(((2-oxopyrrolidin-3-yl)amino)methyl)-2-(4-(4-(trifluoromethyl)phenoxy)phenyl)pyrimidine-4-carboxamide] | – | – | 0.439 ± 0.023
NC(=O)c1cc(CN[C@@H](CO)C(N)=O)nc(C2=CCC(Oc3ccc(C(F)(F)F)cc3)CC2)n1 (stereo partly drawn) [Compound 58, 6-((((S)-1-amino-3-hydroxy-1-oxopropan-2-yl)amino)-methyl)-2-(4-(4-(trifluoromethyl)-phenoxy)cyclohex-1-en-1-yl)pyrimidine-4-carboxamide] | – | 0.524 ± 0.161 | 1.47 ± 0.091
NC(=O)c1cc(CN2CCNC(=O)C2)nc(C2=CCC(Oc3ccc(C(F)(F)F)cc3)CC2)n1 (stereo not drawn) [Compound 59, 6-((3-oxopiperazin-1-yl)-methyl)-2-(4-(4-(trifluoro-methyl)phenoxy)cyclohex-1-en-1-yl)pyrimidine-4-carboxamide] | 0.07 ± 0.003 | 0.059 ± 0.018 | –
NC(=O)c1cc(CN[C@@H](CO)C(N)=O)nc(-c2ccc(Oc3ccc(C(F)(F)F)cc3)cc2)n1 [Compound 23, (S)-6-(((1-amino-3-hydroxy-1-oxopropan-2-yl)amino)methyl)-2-(4-(4-(trifluoromethyl)-phenoxy)phenyl)pyrimidine-4-carboxamide] | – | 0.145 ± 0.044 | 0.2 ± 0.045
NC(=O)c1cc(CN[C@H]2CCNC2=O)nc(-c2ccc(Oc3ccc(C4CC4)cn3)cc2)n1 [Compound 14, (S)-2-(4-((5-cyclopropylpyridin-2-yl)oxy)phenyl)-6-(((2-oxopyrrolidin-3-yl)amino)-methyl)pyrimidine-4-carboxamide] | – | 1.41 ± 0.231 | 3.39 ± 1.15
O=C1NCC[C@@H]1NCc1cc([C@H](O)CO)nc(-c2ccc(Oc3ccc(OC(F)(F)F)cc3)cc2)n1 [Compound 40, (S)-3-(((6-((S)-1,2-dihydroxyethyl)-2-(4-(4-(trifluoromethoxy)phenoxy)phenyl)pyrimidin-4-yl)methyl)-amino)pyrrolidin-2-one] | – | 2.68 ± 0.206 | 1.55 ± 0.215
NC(=O)c1cc(CN[C@H]2CCNC2=O)nc(-c2ccc(Oc3ccc(C(F)(F)F)cn3)cc2)n1 [Compound 26, (S)-6-(((2-oxopyrrolidin-3-yl)amino)methyl)-2-(4-((5-(trifluoromethyl)pyridin-2-yl)oxy)phenyl)pyrimidine-4-carboxamide] | – | 0.662 ± 0.13 | 1.75 ± 0.6
NC(=O)c1cc(CN2CCNC(=O)C2)nc(-c2ccc(Oc3ccc(C(F)(F)F)cn3)cc2)n1 [Compound 28, 6-((3-oxopiperazin-1-yl)-methyl)-2-(4-((5-(trifluoro-methyl)pyridin-2-yl)oxy)-phenyl)pyrimidine-4-carboxamide] | 2.45 ± 0.133 | – | –
NC(=O)c1cc(CN[C@@H]2CCNC2=O)nc(C2=CCC(Oc3ccc(C(F)(F)F)cc3)CC2)n1 (stereo partly drawn) [Compound 56, 6-((((R)-2-oxopyrrolidin-3-yl)amino)methyl)-2-(4-(4-(trifluoromethyl)phenoxy)cyclohex-1-en-1-yl)pyrimidine-4-carboxamide] | – | 0.117 ± 0.01 | 0.544 ± 0.062
NC(=O)c1cc(CN2C[C@H](O)C[C@H]2C(N)=O)nc(-c2ccc(Oc3ccc(C(F)(F)F)cc3)cc2)n1 [Compound 24, 6-(((2S, 4R)-2-carbamoyl-4-hydroxypyrrolidin-1-yl)methyl)-2-(4-(4-(trifluoromethyl)-phenoxy)phenyl)pyrimidine-4-carboxamide] | – | 0.342 ± 0.095 | 0.583 ± 0.056
NC(=O)c1cc(CO)nc(C2=CCC(Oc3ccc(C(F)(F)F)cc3)CC2)n1 (stereo not drawn) [Compound 54, 6-(hydroxymethyl)-2-(4-(4-(trifluoromethyl)phenoxy)cyclohex-1-en-1-yl)pyrimidine-4-carboxamide] | – | – | 0.242 ± 0.023
NC(=O)c1cc(CN2CCC[C@H]2C(N)=O)nc(-c2ccc(Oc3ccc(C(F)(F)F)cc3)cc2)n1 [Compound 16, (S)-6-((2-carbamoylpyrrolidin-1-yl)methyl)-2-(4-(4-(trifluoro-methyl)phenoxy)phenyl)pyrimidine-4-carboxamide] | – | – | 0.085 ± 0.012
NC(=O)c1cc(CN2CC[C@@H](O)[C@H]2C(N)=O)nc(-c2ccc(Oc3ccc(C(F)(F)F)cc3)cc2)n1 [Compound 65, 6-(((2S,3R)-2-carbamoyl-3-hydroxypyrrolidin-1-yl)methyl)-2-(4-(4-(trifluoromethyl)-phenoxy)phenyl)pyrimidine-4-carboxamide] | – | 0.046 ± 0.009 | 0.094 ± 0.008
C[C@H](NCc1cc(C(N)=O)nc(-c2ccc(Oc3ccc(C(F)(F)F)cc3)cc2)n1)C(N)=O [Compound 21, (S)-6-(((1-amino-1-oxopropan-2-yl)amino)methyl)-2-(4-(4-(trifluoromethyl)phenoxy)phenyl)pyrimidine-4-carboxamide] | – | – | 0.042 ± 0.006
NC(=O)c1cc(CN2CCNC(=O)C2)nc(-c2ccc(Oc3ccc(C(F)(F)F)cc3)cc2)n1 [Compound 27, 6-((3-oxopiperazin-1-yl)-methyl)-2-(4-(4-(trifluoro-methyl)phenoxy)phenyl)pyrimidine-4-carboxamide] | – | 0.08 ± 0.027 | 0.072 ± 0.008
NC(=O)c1cc(CN2CC(=O)NC(=O)C2)nc(-c2ccc(Oc3ccc(C(F)(F)F)cc3)cc2)n1 [Compound 62, 6-((3,5-dioxopiperazin-1-yl)methyl)-2-(4-(4-(trifluoro-methyl)phenoxy)phenyl)pyrimidine-4-carboxamide] | – | – | 0.205 ± 0.006
CC(C)[C@H](NCc1cc(C(N)=O)nc(-c2ccc(Oc3ccc(C(F)(F)F)cc3)cc2)n1)C(N)=O [Compound 22, (S)-6-(((1-amino-3-methyl-1-oxobutan-2-yl)amino)methyl)-2-(4-(4-(trifluoromethyl)-phenoxy)phenyl)pyrimidine-4-carboxamide] | – | 0.22 ± 0.034 | 0.2 ± 0.045
CC1(C)C(=O)NCCN1Cc1cc(C(N)=O)nc(-c2ccc(Oc3ccc(C(F)(F)F)cn3)cc2)n1 [Compound 60, 6-((2,2-dimethyl-3-oxopiperazin-1-yl)methyl)-2-(4-((5-(trifluoromethyl)pyridin-2-yl)oxy)phenyl)pyrimidine-4-carboxamide] | – | – | > 20
NC(=O)c1cc(CN[C@H]2CCNC2=O)nc(-c2ccc(Oc3ccc(Cl)cc3F)cc2)n1 [Compound 15] | – | 0.041 ± 0.006 | 0.065 ± 0.01
C[C@H](NCc1cc(C(N)=O)nc(C2=CCC(Oc3ccc(C(F)(F)F)cc3)CC2)n1)C(N)=O (stereo partly drawn) [Compound 57] | – | 0.175 ± 0.039 | 0.557 ± 0.049
CC1(C)C(=O)NCCN1Cc1cc(C(N)=O)nc(-c2ccc(Oc3ccc(C(F)(F)F)cc3)cc2)n1 [Compound 61, 6-((2,2-dimethyl-3-oxopiperazin-1-yl)methyl)-2-(4-(4-(trifluoromethyl)phenoxy)-phenyl) pyrimidine-4-carboxamide] | 0.627 ± 0.022 | – | –
